The NIST ThermoML archive (doi:10.1016/j.jct.2018.02.018)

Tests used:
[1] = xn = mol fraction of the nth substance listed; details: 100 kPa, Liquid; for speed of sound: Frequency=3 MHz, Single path-length method; for mass density: Vibrating tube method
[2] = refractive index (Na D-line) (dimensionless); xn = mol fraction of the nth substance listed; details: 100 kPa, Liquid, Standard Abbe refractometry

CN(C)CCCO [3-dimethylamino-1-propanol] + C[S+](C)[O-]
Details	mass density, [1] [kg/m3]	refractive index, [2]	speed of sound, [1] [m/s]
293.15 K, x2 = 0	885	1.437	1395.8
293.15 K, x2 = 0.0517	891	1.438	1397.6
293.15 K, x2 = 0.0986	898	1.439	1398.4
293.15 K, x2 = 0.1998	911	1.442	1401.4
293.15 K, x2 = 0.3	927	1.444	1405.2
293.15 K, x2 = 0.3998	944	1.447	1411.3
293.15 K, x2 = 0.5031	963	1.451	1418.8
293.15 K, x2 = 0.5988	983	1.455	1428.3
293.15 K, x2 = 0.6998	1007	1.46	1441.3
293.15 K, x2 = 0.7918	1032	1.465	1456
293.15 K, x2 = 0.899	1065	1.472	1478
293.15 K, x2 = 0.9494	1082	1.476	1489.6
303.15 K, x2 = 0	877	1.433	1358.8
303.15 K, x2 = 0.0517	883	1.434	1360.9
303.15 K, x2 = 0.0986	889	1.435	1361.8
303.15 K, x2 = 0.1998	903	1.437	1365.3
303.15 K, x2 = 0.3	918	1.44	1369.9
303.15 K, x2 = 0.3998	935	1.443	1375.7
303.15 K, x2 = 0.5031	954	1.447	1383.9
303.15 K, x2 = 0.5988	974	1.451	1393.6
303.15 K, x2 = 0.6998	998	1.456	1406.9
303.15 K, x2 = 0.7918	1023	1.46	1421.8
303.15 K, x2 = 0.899	1055	1.467	1444.5
303.15 K, x2 = 0.9494	1072	1.471	1455.9
313.15 K, x2 = 0	869	1.429	1322.1
313.15 K, x2 = 0.0517	875	1.43	1324.4
313.15 K, x2 = 0.0986	881	1.431	1325.4
313.15 K, x2 = 0.1998	895	1.433	1328.9
313.15 K, x2 = 0.3	910	1.436	1334.4
313.15 K, x2 = 0.3998	926	1.439	1340.7
313.15 K, x2 = 0.5031	946	1.443	1349.3
313.15 K, x2 = 0.5988	965	1.447	1359.3
313.15 K, x2 = 0.6998	989	1.451	1372.9
313.15 K, x2 = 0.7918	1013	1.456	1388.1
313.15 K, x2 = 0.899	1046	1.463	1410.9
313.15 K, x2 = 0.9494	1062	1.467	1422.3
323.15 K, x2 = 0	860	1.425	1285.7
323.15 K, x2 = 0.0517	867	1.426	1288.2
323.15 K, x2 = 0.0986	873	1.427	1289.5
323.15 K, x2 = 0.1998	886	1.429	1293.8
323.15 K, x2 = 0.3	901	1.432	1299.3
323.15 K, x2 = 0.3998	918	1.435	1306.1
323.15 K, x2 = 0.5031	937	1.439	1315.1
323.15 K, x2 = 0.5988	956	1.443	1325.5
323.15 K, x2 = 0.6998	980	1.447	1339.4
323.15 K, x2 = 0.7918	1004	1.452	1354.7
323.15 K, x2 = 0.899	1036	1.459	1377.6
323.15 K, x2 = 0.9494	1052	1.462	1389

NCCO [2-aminoethan-1-ol] + C[S+](C)[O-]
Details	mass density, [1] [kg/m3]	refractive index, [2]	speed of sound, [1] [m/s]
293.15 K, x2 = 0	1016	1.455	1734.2
293.15 K, x2 = 0.1026	1026	1.457	1701.8
293.15 K, x2 = 0.2008	1035	1.46	1672.3
293.15 K, x2 = 0.2981	1043	1.462	1645.9
293.15 K, x2 = 0.3966	1051	1.465	1619.8
293.15 K, x2 = 0.4933	1059	1.467	1595.4
293.15 K, x2 = 0.6021	1068	1.469	1571.2
293.15 K, x2 = 0.6969	1076	1.472	1550.6
293.15 K, x2 = 0.7998	1083	1.474	1533.3
293.15 K, x2 = 0.9005	1092	1.476	1517.8
303.15 K, x2 = 0	1008	1.451	1702.2
303.15 K, x2 = 0.1026	1017	1.454	1669.2
303.15 K, x2 = 0.2008	1026	1.455	1639.1
303.15 K, x2 = 0.2981	1034	1.458	1611.9
303.15 K, x2 = 0.3966	1042	1.46	1585.5
303.15 K, x2 = 0.4933	1050	1.463	1561.2
303.15 K, x2 = 0.6021	1058	1.465	1537
303.15 K, x2 = 0.6969	1066	1.467	1516.6
303.15 K, x2 = 0.7998	1074	1.469	1499
303.15 K, x2 = 0.9005	1082	1.472	1484
313.15 K, x2 = 0	1000	1.447	1669.4
313.15 K, x2 = 0.1026	1009	1.45	1636.3
313.15 K, x2 = 0.2008	1017	1.452	1605.3
313.15 K, x2 = 0.2981	1025	1.454	1578.3
313.15 K, x2 = 0.3966	1033	1.456	1551.7
313.15 K, x2 = 0.4933	1041	1.458	1527.2
313.15 K, x2 = 0.6021	1049	1.461	1503
313.15 K, x2 = 0.6969	1057	1.463	1483.1
313.15 K, x2 = 0.7998	1064	1.465	1465.2
313.15 K, x2 = 0.9005	1072	1.468	1449.9
323.15 K, x2 = 0	992	1.443	1637.3
323.15 K, x2 = 0.1026	1001	1.446	1603.2
323.15 K, x2 = 0.2008	1009	1.449	1571.9
323.15 K, x2 = 0.2981	1017	1.45	1544.7
323.15 K, x2 = 0.3966	1024	1.452	1517.9
323.15 K, x2 = 0.4933	1031	1.454	1493.4
323.15 K, x2 = 0.6021	1039	1.457	1469.3
323.15 K, x2 = 0.6969	1047	1.459	1449.4
323.15 K, x2 = 0.7998	1054	1.461	1431.7
323.15 K, x2 = 0.9005	1062	1.463	1416.4
